Test [1] deals with bacterial cells expressing an adenine DNA methyltransferase. The format is cell-based, Caulobacter.
The target in the next test is dam Methylase (E. coli) (Escherichia coli, UniProt P0AEE8). It counts as biochemical. The following applies: 100 µM.
In test [2] the target is dcm Methyltransferase (Hhal) (Haemophilus parahaemolyticus, UniProt P05102). It counts as biochemical, Hemophilus hemolyticus. The conditions noted are these: at 500 μM.
A further test relates to Brucella abortus. It counts as cell-based.
In test [3] the test system is Agrobacterium tumefaciens. It counts as cell-based. The following applies: read-out: IC50 cell growth inhibition.
In another test the test system is Helicobacter pylori. The format is cell-based. The following applies: read-out: IC50 cell growth inhibition.
The test system of test [4] is Caulobacter crescentus (CB15N). The format is cell-based. The conditions noted are these: 30° C., growth monitored at 630 nm up to 22 hours; read-out: IC50 (μM) Caulobacter crescentus Cell Growth.
A further test relates to Brucella abortus CcrM. The format is biochemical.
For test [5], the system named is Bacillus subtilis (ATCC #33234). It counts as cell-based. The following applies: 37° C., growth monitored up to 7.5 hours; read-out: IC50 (μM) Bacillus Subtilis Cell Growth.
Another test has as its system Bacillus subtilis. The test is described as follows: microbe, parasite or virus in culture. It counts as cell-based. The following applies: read-out: IC50 cell growth inhibition.
The next test has as its system Caulobacter cresentus. Nature of the test: microbe, parasite or virus in culture. The format is cell-based. The conditions noted are these: read-out: IC50 cell growth inhibition.
For test [6], the system named is adenine DNA methyltransferase. It counts as biochemical.

In general, pIC50 refers to −log10 of the IC50, conventionally taken in molar units. By IC50 is commonly meant the concentration that gives 50% inhibition.

pIC50: −log10 of the molar value.

dcm Methyltransferase (Hhal), sequence (P05102 whole entry): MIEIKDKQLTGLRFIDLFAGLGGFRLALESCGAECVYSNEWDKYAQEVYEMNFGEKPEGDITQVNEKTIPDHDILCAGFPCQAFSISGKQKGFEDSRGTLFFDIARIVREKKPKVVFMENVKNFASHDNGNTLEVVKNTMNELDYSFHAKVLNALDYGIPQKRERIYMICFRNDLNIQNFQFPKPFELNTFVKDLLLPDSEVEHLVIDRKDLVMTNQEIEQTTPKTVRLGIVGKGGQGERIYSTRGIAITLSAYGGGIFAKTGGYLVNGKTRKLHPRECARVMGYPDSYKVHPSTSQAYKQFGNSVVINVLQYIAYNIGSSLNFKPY
dam Methylase (E. coli), sequence (P0AEE8 whole entry): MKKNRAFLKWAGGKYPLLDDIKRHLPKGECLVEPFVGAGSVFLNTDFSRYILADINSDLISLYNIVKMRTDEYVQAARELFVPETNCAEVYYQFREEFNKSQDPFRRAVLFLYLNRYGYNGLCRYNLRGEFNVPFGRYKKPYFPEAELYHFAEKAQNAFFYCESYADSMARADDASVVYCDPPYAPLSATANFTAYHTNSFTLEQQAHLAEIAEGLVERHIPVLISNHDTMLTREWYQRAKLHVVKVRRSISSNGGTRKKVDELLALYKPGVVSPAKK

With `c1ccc(B(OCCNc2ncnc3[nH]cnc23)c2ccccc2)cc1`, the “concentration found to inhibit cell growth” value in test [1] is < 50 µM.

With “6-N-(diphenylborinic ester)-ethyl-9-(2-(2-(2-hydroxyethoxy)ethoxy)ethyl)-adenine [Compound 3d]”, at dam Methylase (E. coli), the “inhibition of dam Methylase” value is given as “Complete inhibition”. In test [2], the “inhibition of dcm Methyltransferase” value was “No inhibition at all”. The “effect on cell growth” value in the test on Brucella abortus is given as “Cell growth inhibited from start”.

With “6-N-(diphenylborinic ester)-ethyl-9-(2-(4-morpholinyl)-ethyl)-adenine [Compound 3b]”, at dam Methylase (E. coli), the “inhibition of dam Methylase” value is reported as “Complete inhibition”. Also, the “inhibition of dcm Methyltransferase” value in test [2] is “No inhibition at all”. In test [3], the pIC50 is 4.60. The “effect on cell growth” value with Brucella abortus was “Complete cell death after 12 hours”.

For the molecule “6-N-(diphenylborinic ester)-ethyl-9-(3-(N-phthaloyl)-aminopropyl)-adenine [Compound 3c]”, the “inhibition of dam Methylase” value on dam Methylase (E. coli) is listed as “Complete inhibition”. For the same molecule, the “inhibition of dcm Methyltransferase” value in test [2] is on record as “No inhibition at all”. Also, the pIC50 in test [3] is 4.60. In the test on Brucella abortus, the “effect on cell growth” value is recorded as “Cell growth inhibited from start”.

Regarding “6-N-(diphenylborinic ester)-ethyl-9-(ethyl-2-acrylate)-methyl-adenine [Compound 3e]”, on dam Methylase (E. coli), the “inhibition of dam Methylase” value was “Complete inhibition”. Besides, the “inhibition of dcm Methyltransferase” value in test [2] is given as “No inhibition at all”. Moreover, the pIC50 with Helicobacter pylori was 4.60. In addition, the “effect on cell growth” value in the test on Brucella abortus is on record as “Cell growth inhibited from start”.

Regarding “6-N-(diphenylborinic ester)-ethyl-adenine [Compound 3a]”, on dam Methylase (E. coli), the “inhibition of dam Methylase” value is given as “Complete inhibition”. Further, in test [2], the “inhibition of dcm Methyltransferase” value is listed as “No inhibition at all”. The pIC50 in [3] is < 4.00. Further, the “effect on cell growth” value with Brucella abortus is given as “Almost complete cell death after 12 hours”.

As to `c1ccc(B(Oc2cccc3cccnc23)c2ccccc2)cc1` [(11i), diphenylborinic acid 8-hydroxyquiniline ester], the IC50 in [4] was > 100 µM.

For the molecule `Fc1ccc(B(Oc2cccc3cccnc23)c2ccc(F)cc2)cc1` [(11ii), Di-(4-fluorophenyl)borinic acid 8-hydroxyguinoline ester], the half-maximal inhibitory concentration (IC50) in [4] is 23 µM. For the same molecule, the “% reaction Brucella abortus CcrM Activity” value in the test on Brucella abortus CcrM turned out to be 61%.

In the case of `Clc1ccc(B(Oc2cccc3cccnc23)c2ccc(Cl)cc2)cc1` [(11iii), Di-(4-chlorophenyl)borinic acid 8-hydroxyquinoline ester], in [4], the half-inhibitory concentration (IC50) turned out to be 16 µM. For the same molecule, the “% reaction Brucella abortus CcrM Activity” value in the test with Brucella abortus CcrM worked out at 61%.

For the molecule `Clc1cccc(B(Oc2cccc3cccnc23)c2cccc(Cl)c2)c1` [(11iv), Di-(3-chlorophenyl)borinic acid 8-hydroxyguinoline ester], the IC50 in [4] is 10 µM; in test [5], < 10 µM.

For the molecule `Fc1cc(Cl)ccc1B(Oc1cccc2cccnc12)c1ccc(Cl)cc1F` [(11v), Di-(4-chloro-2-fluorophenyl)borinic acid 8-hydroxyquinoline ester], the IC50 was 26 µM in test [4] and < 10 µM in test [5].

Consider `c1cnc2c(OB(c3ccc4c(c3)OCO4)c3ccc4c(c3)OCO4)cccc2c1` [(11vi), Di-(3,4-methylenedioxyphenyl)borinic acid 8-hydroxyquinoline ester], for which the half-maximal inhibitory concentration (IC50) in [4] stood at 32 µM; in test [5], 28 µM. Moreover, in the test on Brucella abortus CcrM, the “% reaction Brucella abortus CcrM Activity” value came out at 42%.

With `COc1ccc(B(Oc2cccc3cccnc23)c2ccc(OC)cc2)cc1` [(11vii), Di-(4-methoxyphenyl)borinic acid 8-hydroxyquinoline ester], the figures for the IC50 in test [4] and in test [5] were 24 µM and 20 µM, respectively.

As to `c1csc(B(Oc2cccc3cccnc23)c2cccs2)c1` [(11viii), Di-(2-thienyl)borinic acid 8-hydroxyguinoline ester], the IC50 was > 100 µM in [4] and 28 µM in test [5]. For the same molecule, the “% reaction Brucella abortus CcrM Activity” value in the test on Brucella abortus CcrM was determined as 74%.

As for `Cc1ccc2cccc(OB(c3ccc(F)cc3)c3ccc(F)cc3)c2n1` [(12ii), Di-(p-fluorophenyl)borinic acid 8-hydroxyquinaldine ester], the figures for the concentration for half-maximal inhibition (IC50) in [4] and in [5] were 56 µM and > 100 µM, respectively. Also, in the test with Brucella abortus CcrM, the “% reaction Brucella abortus CcrM Activity” value is 17%.

For the molecule `Cc1ccc2cccc(OB(c3ccc(Cl)cc3)c3ccc(Cl)cc3)c2n1` [(12iii), Di-(p-chlorophenyl)borinic acid 8-hydroxyguinaldine ester], the IC50 in test [4] was 5 µM; in [5] it was 24 µM. Further, the “% reaction Brucella abortus CcrM Activity” value with Brucella abortus CcrM is 40%.

With `COc1ccc(B(Oc2cccc3ccc(C)nc23)c2ccc(OC)cc2)cc1` [(12vii), Di-(4-methoxyphenyl)borinic acid 8-hydroxyquinaldine ester], the IC50 is 24 µM in test [4] and > 100 µM in test [5]. Also, the “% reaction Brucella abortus CcrM Activity” value with Brucella abortus CcrM is 56%.

As to `Fc1ccc(B(Oc2ccc(Cl)c3cccnc23)c2ccc(F)cc2)cc1` [(13ii), Di-(p-fluorophenyl)borinic acid 5-chloro-8-hydroxyquinaline ester], the IC50 in [4] is 7 µM; in test [5], 27 µM. For the same molecule, the “% reaction Brucella abortus CcrM Activity” value in the test with Brucella abortus CcrM is given as 55%.

Take `Clc1ccc(B(Oc2ccc(Cl)c3cccnc23)c2ccc(Cl)cc2)cc1` [(13iii), Di-(p-chlorophenyl)borinic acid 5-chloro-8-hydroxyquinaline ester]: the figures for the IC50 in test [4] and in test [5] were 6 µM and < 10 µM, respectively. Moreover, the “% reaction Brucella abortus CcrM Activity” value in the test on Brucella abortus CcrM came to 81%.

Regarding `Clc1ccc(OB(c2ccc3c(c2)OCO3)c2ccc3c(c2)OCO3)c2ncccc12` [(13vi), Di-(3,4-methylenedioxyphenyl)borinic acid 5-chloro-8-hydroxyquinoline ester], the values for the half-inhibitory concentration (IC50) in test [4] and in [5] were 7 µM and > 100 µM, respectively.

For the molecule `COc1ccc(B(Oc2ccc(Cl)c3cccnc23)c2ccc(OC)cc2)cc1` [(13vii), Di-(4-methoxyphenyl)borinic acid 5-chloro-8-hydroxyquinoline ester], the IC50 in [4] came out at 7 µM; in [5], 36 µM.

In the case of `O=[N+]([O-])c1ccc(OB(c2ccc3c(c2)OCO3)c2ccc3c(c2)OCO3)c2ncccc12` [(14vi), Di-(3,4-methylenedioxyphenyl)borinic acid 8-hydroxy-5-nitroquinoline ester], the half-maximal inhibitory concentration (IC50) in test [4] is 7 µM; in test [5], > 100 µM. Further, the “% reaction Brucella abortus CcrM Activity” value in the test on Brucella abortus CcrM was 21%.

For `c1ccc(B(OCc2ccccn2)c2ccccc2)cc1` [(16i), Diphenylborinic acid pyridine-2-methanol], the half-maximal inhibitory concentration (IC50) in test [4] and in [5] was > 100 µM throughout. The “% reaction Brucella abortus CcrM Activity” value in the test with Brucella abortus CcrM is recorded as 93%.

For the molecule `NCCOB(c1ccc(F)cc1)c1ccc(F)cc1` [(19ii), Di-(4-fluorophenyl)borinic acid ethanolamine ester], the concentration for half-maximal inhibition (IC50) in [4] came out at 85 µM. The “% reaction Brucella abortus CcrM Activity” value in the test with Brucella abortus CcrM was determined as 8%.

`NCCOB(c1ccc(Cl)cc1)c1ccc(Cl)cc1` [(19iii), Di-(4-chlorophenyl)borinic acid ethanolamine ester]: the 50% inhibitory concentration (IC50) in [4] is 17 µM.

Consider `Fc1ccc([B-]2(c3ccc(F)cc3)Oc3cccc4ccc[n+]2c34)cc1` [Compound (1), di-(p-fluorophenyl)borinic acid 8-hydroxyquiniline ester], for which the negative logarithm of the IC50 (pIC50) is 5.85 with Bacillus subtilis and 4.64 with Caulobacter cresentus.

Regarding `Clc1ccc([B-]2(c3ccc(Cl)cc3)Oc3cccc4ccc[n+]2c34)cc1` [Compound (2), di-(p-chlorophenyl)borinic acid 8-hydroxyquiniline ester], the negative-log IC50 (pIC50) was 5.15 in the test on Bacillus subtilis and 5.80 with Caulobacter cresentus.

Consider `c1ccc([B-]2(c3ccccc3)Oc3cccc4ccc[n+]2c34)cc1` [Compound (3), diphenylborinic acid 8-hydroxyquiniline ester], for which the negative-log IC50 (pIC50) in the test on Caulobacter cresentus is < 4.00.

On to `Fc1ccc([B-]2(c3ccc(F)cc3)[NH2+]CCO2)cc1` [Compound (4), di-(p-fluorophenyl)borinic acid ethanolamine ester], for which the pIC50 in the test on Bacillus subtilis is 5.47; in the test on Caulobacter cresentus, 5.07.

As for `Clc1ccc([B-]2(c3ccc(Cl)cc3)[NH2+]CCO2)cc1` [Compound (5), di-(p-chlorophenyl)borinic acid ethanolamine ester], the pIC50 was 5.49 in the test on Bacillus subtilis and 5.77 in the test with Caulobacter cresentus.

`NCCNc1ncnc2[nH]cnc12` [compound (8)]: the inhibitory activity result in test [6] is recorded as “relatively low (mM range)”.

Take “Diphenylborinic acid 2-amino-1-phenylpropanol [(17i)]”: the half-maximal inhibitory concentration (IC50) in test [4] and in test [5] was > 100 µM in each case. In addition, the “% reaction Brucella abortus CcrM Activity” value with Brucella abortus CcrM came to 114%.

As for “Diphenylborinic acid (S)-(+)-pyrrolidine-2-methanol [(18i)]”, the IC50 in test [4] and in test [5] was > 100 µM each time. The “% reaction Brucella abortus CcrM Activity” value in the test with Brucella abortus CcrM is 81%.

The record behind these values is US20050227933A1 (priority 2001, published 2005).
